Test results reported in ChEMBL document CHEMBL3124857, “Encoded library technology as a source of hits for the discovery and lead optimization of a potent and selective class of bactericidal direct inhibitors of Mycobacterium tuberculosis InhA” (J Med Chem, 2014).
Converted amounts (≈) assume the structure as drawn. The source made the active and inactive calls. No cut-off for these calls is given here.

Assays:
[1] = tested on: Mycobacterium tuberculosis; experiment: Antitubercular activity against Mycobacterium tuberculosis H37Rv infected in C57BL/6 mouse assessed as reduction of bacterial CFU in lung at 30 mg/kg, po administered for 8 days measured 24 hrs post last dose relative to control; type: functional
[2] = tested on: Mycobacterium tuberculosis; experiment: Bactericidal activity against Mycobacterium tuberculosis H37Rv assessed as log reduction of bacterial CFU at 1.2 ug/mL after 1 week; type: functional, organism-based
[3] = tested on: Mycobacterium tuberculosis; experiment: Antitubercular activity against Mycobacterium tuberculosis H37Rv infected in C57BL/6 mouse assessed as reduction of bacterial CFU in lung at 500 to 1000 mg/kg, po administered for 8 days measured 24 hrs post last dose; type: functional, organism-based
[4] = Cmax in C57BL/6J mouse at 1000 mg/kg, po measured at 24 hrs; type: ADME, organism-based; parameters: dose 1000 mg/kg, route oral; conditions: in vivo
[5] = Total AUC in C57BL/6J mouse at 1000 mg/kg, po measured at 24 hrs; type: ADME, organism-based; parameters: time AUCmax, dose 1000 mg/kg, route oral; conditions: in vivo
[6] = Oral bioavailability in C57BL/6J mouse at 50 mg/kg; type: ADME, organism-based; conditions: in vivo
[7] = Clearance in C57BL/6J mouse at 4 mg/kg, iv; type: ADME, organism-based; parameters: dose 4 mg/kg, route intravenous; conditions: in vivo
[8] = Volume of distribution in C57BL/6J mouse at 4 mg/kg, iv; type: ADME, organism-based; parameters: dose 4 mg/kg, route intravenous; conditions: in vivo
[9] = AUC (0 to infinity) in C57BL/6J mouse at 50 mg/kg, po; type: ADME, organism-based; parameters: time infinity, dose 50 mg/kg, route oral; conditions: plasma
[10] = Half life in C57BL/6J mouse at 4 mg/kg, iv; type: ADME, organism-based; parameters: dose 4 mg/kg, route intravenous; conditions: in vivo
[11] = Cmax in C57BL/6J mouse at 50 mg/kg, po; type: ADME, organism-based; parameters: dose 50 mg/kg, route oral; conditions: in vivo
[12] = Tmax in C57BL/6J mouse at 50 mg/kg, po; type: ADME, organism-based; parameters: dose 50 mg/kg, route oral; conditions: in vivo
[13] = tested on: Mycobacterium tuberculosis; experiment: Bactericidal activity against Mycobacterium tuberculosis H37Rv assessed as log reduction of bacterial CFU at 20 times MIC after 1 week relative to control; type: functional
[14] = tested on: Mycobacterium tuberculosis; experiment: Antitubercular activity against Mycobacterium tuberculosis infected in human THP1 cells assessed as growth inhibition after 5 days by luciferase reporter gene assay; type: functional, THP-1; conditions: 120 h
[15] = Plasma protein binding in human at 1 uM after 4 to 6 hrs by LC-MS/MS analysis; type: ADME, cell-free; conditions: read-out: PPB (converted)
[16] = tested on: Liver microsome; experiment: Intrinsic clearance in human liver microsomes at 0.5 uM; type: ADME
[17] = Half life in human liver microsomes at 0.5 uM; type: ADME
[18] = Intrinsic clearance in mouse liver microsomes at 0.5 uM; type: ADME, Microsome
[19] = Half life in mouse liver microsomes at 0.5 uM; type: ADME, Microsome
[20] = biological target: Cytochrome P450 3A4 (Homo sapiens, UniProt P08684); experiment: Inhibition of human CYP3A4 by fluorescence assay; type: ADME
Chain of Cytochrome P450 3A4 (P08684 whole entry): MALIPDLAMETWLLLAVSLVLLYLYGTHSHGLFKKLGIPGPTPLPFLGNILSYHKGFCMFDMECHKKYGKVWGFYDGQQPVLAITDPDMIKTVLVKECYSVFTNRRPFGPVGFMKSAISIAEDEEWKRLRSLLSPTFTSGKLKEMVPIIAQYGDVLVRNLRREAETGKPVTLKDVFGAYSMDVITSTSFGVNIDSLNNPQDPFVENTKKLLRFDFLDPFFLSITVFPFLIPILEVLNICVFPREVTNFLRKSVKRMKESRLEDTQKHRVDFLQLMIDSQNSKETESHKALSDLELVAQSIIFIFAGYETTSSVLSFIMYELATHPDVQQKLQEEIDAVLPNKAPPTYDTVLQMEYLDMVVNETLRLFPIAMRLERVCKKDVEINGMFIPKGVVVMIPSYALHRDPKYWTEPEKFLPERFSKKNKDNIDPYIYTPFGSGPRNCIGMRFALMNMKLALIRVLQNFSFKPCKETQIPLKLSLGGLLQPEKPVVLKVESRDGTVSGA

[21] = biological target: Cytochrome P450 2D6 (Homo sapiens, UniProt P10635); experiment: Inhibition of human CYP2D6 by fluorescence assay; type: ADME
Chain of Cytochrome P450 2D6 (P10635 whole entry): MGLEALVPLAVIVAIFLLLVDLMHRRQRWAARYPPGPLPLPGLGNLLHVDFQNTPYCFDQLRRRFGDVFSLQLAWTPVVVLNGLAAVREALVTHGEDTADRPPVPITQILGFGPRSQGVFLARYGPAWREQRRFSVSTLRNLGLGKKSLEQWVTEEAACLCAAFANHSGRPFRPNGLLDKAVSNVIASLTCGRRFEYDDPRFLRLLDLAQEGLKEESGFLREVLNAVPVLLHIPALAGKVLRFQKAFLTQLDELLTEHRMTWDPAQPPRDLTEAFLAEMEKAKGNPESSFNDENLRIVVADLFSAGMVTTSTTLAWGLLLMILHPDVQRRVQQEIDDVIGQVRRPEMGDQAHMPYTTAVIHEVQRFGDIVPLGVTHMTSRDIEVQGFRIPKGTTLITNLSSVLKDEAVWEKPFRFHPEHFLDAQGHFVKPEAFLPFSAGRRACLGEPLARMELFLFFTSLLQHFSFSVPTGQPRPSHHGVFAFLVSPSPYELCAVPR

[22] = biological target: Cytochrome P450 2C19 (Homo sapiens, UniProt P33261); experiment: Inhibition of human CYP2C19 by fluorescence assay; type: ADME
Chain of Cytochrome P450 2C19 (P33261 whole entry): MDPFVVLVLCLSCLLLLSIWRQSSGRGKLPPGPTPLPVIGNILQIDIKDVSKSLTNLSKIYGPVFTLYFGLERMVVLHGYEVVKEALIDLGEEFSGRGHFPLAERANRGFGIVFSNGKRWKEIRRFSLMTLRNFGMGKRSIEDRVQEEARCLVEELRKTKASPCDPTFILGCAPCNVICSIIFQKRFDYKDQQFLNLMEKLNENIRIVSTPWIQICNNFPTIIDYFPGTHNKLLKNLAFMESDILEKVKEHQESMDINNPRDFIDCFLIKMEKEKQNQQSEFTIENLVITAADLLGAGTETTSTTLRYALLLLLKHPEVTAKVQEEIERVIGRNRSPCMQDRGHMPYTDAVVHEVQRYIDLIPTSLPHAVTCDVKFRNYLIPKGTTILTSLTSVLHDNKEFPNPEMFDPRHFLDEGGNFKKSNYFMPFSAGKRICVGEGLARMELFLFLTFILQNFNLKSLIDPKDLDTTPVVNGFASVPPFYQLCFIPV

[23] = biological target: Cytochrome P450 2C9 (Homo sapiens, UniProt P11712); experiment: Inhibition of human CYP2C9 by fluorescence assay; type: ADME
Chain of Cytochrome P450 2C9 (P11712 whole entry): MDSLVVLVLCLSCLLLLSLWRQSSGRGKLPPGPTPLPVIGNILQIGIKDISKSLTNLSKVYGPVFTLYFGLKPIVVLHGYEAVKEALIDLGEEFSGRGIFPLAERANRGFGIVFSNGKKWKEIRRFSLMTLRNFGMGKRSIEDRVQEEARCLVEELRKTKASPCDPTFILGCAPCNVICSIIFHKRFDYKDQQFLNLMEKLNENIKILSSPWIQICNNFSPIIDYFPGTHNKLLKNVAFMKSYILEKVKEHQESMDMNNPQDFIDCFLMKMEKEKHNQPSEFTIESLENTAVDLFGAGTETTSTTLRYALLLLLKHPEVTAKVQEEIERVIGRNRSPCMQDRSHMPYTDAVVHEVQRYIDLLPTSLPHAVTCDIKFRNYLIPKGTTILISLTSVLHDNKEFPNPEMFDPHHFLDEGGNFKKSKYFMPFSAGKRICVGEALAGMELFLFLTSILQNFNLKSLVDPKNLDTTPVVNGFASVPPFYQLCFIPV

[24] = biological target: T1, Cytochrome P450 1A2 (Homo sapiens, UniProt P05177); experiment: Inhibition of human CYP1A2 by fluorescence assay; type: ADME
T1 sequence (P05177 whole entry): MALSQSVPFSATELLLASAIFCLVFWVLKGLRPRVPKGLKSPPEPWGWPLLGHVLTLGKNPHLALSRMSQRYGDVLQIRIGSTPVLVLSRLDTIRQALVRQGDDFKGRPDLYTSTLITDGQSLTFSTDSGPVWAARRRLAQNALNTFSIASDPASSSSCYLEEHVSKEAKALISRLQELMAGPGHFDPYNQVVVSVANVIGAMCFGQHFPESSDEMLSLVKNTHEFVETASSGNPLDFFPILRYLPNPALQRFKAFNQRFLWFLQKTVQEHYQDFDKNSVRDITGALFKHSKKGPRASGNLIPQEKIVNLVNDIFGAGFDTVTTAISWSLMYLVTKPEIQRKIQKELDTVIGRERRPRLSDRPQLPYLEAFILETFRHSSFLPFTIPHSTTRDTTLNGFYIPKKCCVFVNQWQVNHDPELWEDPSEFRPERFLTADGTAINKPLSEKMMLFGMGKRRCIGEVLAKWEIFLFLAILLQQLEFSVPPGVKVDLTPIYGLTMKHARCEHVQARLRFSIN

[25] = Kinetic solubility of the compound after 1 hr by CLND assay; type: physicochemical; conditions: for solubility kinetic at 1 h: read-out: Kinetic_solubility
[26] = tested on: Mycobacterium tuberculosis; experiment: Antitubercular activity against wild type Mycobacterium tuberculosis H37Rv ATCC 25618 assessed as growth inhibition after 6 days by resazurin dye-based assay; type: functional; conditions: H37Rv ATCC 25618, 144 h
[27] = Plasma protein binding in mouse at 1 uM after 4 to 6 hrs by LC-MS/MS analysis; type: ADME, cell-free; conditions: read-out: PPB (converted)
[28] = Permeability of the compound by artificial membrane permeability assay; type: physicochemical; conditions: PAMPA; read-out: permeability
[29] = Lipophilicity, log D of the compound at pH 7.4 by chromatographic analysis; type: physicochemical; conditions: buffer
[30] = biological target: T2, Enoyl-[acyl-carrier-protein] reductase [NADH] (Mycobacterium tuberculosis, UniProt P9WGR1); experiment: Inhibition of Mycobacterium tuberculosis full length biotinylated InhA (270 amino acids) using DDCoA as substrate assessed as NADH oxidation by fluorimetric analysis
T2 sequence (P9WGR1 whole entry): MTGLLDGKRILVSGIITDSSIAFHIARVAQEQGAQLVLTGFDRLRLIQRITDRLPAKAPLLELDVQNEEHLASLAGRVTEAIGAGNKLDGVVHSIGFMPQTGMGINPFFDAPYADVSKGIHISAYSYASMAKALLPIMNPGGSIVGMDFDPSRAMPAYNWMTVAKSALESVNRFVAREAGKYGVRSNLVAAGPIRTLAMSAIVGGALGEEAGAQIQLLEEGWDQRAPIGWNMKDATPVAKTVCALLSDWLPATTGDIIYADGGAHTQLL

[31] = tested on: Hepatocyte; experiment: Drug metabolism in mouse hepatocytes assessed as oxidized metabolite formation; type: ADME, cell-based
[32] = tested on: Hepatocyte; experiment: Drug metabolism in human hepatocytes assessed as oxidized metabolite formation; type: ADME, cell-based
[33] = tested on: Hepatocyte; experiment: Drug metabolism in human hepatocytes assessed as N-dealkylated pyrazole metabolite formation; type: ADME, cell-based
[34] = tested on: Hepatocyte; experiment: Drug metabolism in mouse hepatocytes assessed as N-dealkylated pyrazole metabolite formation; type: ADME, cell-based
[35] = tested on: Hepatocyte; experiment: Drug metabolism in mouse hepatocytes assessed as N-dealkylated ethylamide metabolite formation; type: ADME, cell-based
[36] = tested on: Hepatocyte; experiment: Drug metabolism in human hepatocytes assessed as N-dealkylated ethylamide metabolite formation; type: ADME, cell-based
[37] = Intrinsic clearance in human hepatocytes at 1 uM; type: ADME, cell-based, Hepatocyte; conditions: read-out: CLH
[38] = Half life in human hepatocytes at 10 uM; type: ADME, cell-based, Hepatocyte
[39] = Intrinsic clearance in mouse hepatocytes at 1 uM; type: ADME, cell-based, Hepatocyte; conditions: read-out: CLH
[40] = Half life in mouse hepatocytes at 10 uM; type: ADME, cell-based, Hepatocyte
[41] = tested on: HepG2; experiment: Cytotoxicity against human HepG2 cells after 48 hrs by resazurin dye-based fluorescence assay; type: cell-based; conditions: HepG2, 48 h
[42] = biological target: Voltage-gated inwardly rectifying potassium channel KCNH2 (Homo sapiens, UniProt Q12809); experiment: Displacement of [3H]-dofetilide from human ERG after 1 hr by liquid scintillation counting analysis
Chain of Voltage-gated inwardly rectifying potassium channel KCNH2 (Q12809 whole entry): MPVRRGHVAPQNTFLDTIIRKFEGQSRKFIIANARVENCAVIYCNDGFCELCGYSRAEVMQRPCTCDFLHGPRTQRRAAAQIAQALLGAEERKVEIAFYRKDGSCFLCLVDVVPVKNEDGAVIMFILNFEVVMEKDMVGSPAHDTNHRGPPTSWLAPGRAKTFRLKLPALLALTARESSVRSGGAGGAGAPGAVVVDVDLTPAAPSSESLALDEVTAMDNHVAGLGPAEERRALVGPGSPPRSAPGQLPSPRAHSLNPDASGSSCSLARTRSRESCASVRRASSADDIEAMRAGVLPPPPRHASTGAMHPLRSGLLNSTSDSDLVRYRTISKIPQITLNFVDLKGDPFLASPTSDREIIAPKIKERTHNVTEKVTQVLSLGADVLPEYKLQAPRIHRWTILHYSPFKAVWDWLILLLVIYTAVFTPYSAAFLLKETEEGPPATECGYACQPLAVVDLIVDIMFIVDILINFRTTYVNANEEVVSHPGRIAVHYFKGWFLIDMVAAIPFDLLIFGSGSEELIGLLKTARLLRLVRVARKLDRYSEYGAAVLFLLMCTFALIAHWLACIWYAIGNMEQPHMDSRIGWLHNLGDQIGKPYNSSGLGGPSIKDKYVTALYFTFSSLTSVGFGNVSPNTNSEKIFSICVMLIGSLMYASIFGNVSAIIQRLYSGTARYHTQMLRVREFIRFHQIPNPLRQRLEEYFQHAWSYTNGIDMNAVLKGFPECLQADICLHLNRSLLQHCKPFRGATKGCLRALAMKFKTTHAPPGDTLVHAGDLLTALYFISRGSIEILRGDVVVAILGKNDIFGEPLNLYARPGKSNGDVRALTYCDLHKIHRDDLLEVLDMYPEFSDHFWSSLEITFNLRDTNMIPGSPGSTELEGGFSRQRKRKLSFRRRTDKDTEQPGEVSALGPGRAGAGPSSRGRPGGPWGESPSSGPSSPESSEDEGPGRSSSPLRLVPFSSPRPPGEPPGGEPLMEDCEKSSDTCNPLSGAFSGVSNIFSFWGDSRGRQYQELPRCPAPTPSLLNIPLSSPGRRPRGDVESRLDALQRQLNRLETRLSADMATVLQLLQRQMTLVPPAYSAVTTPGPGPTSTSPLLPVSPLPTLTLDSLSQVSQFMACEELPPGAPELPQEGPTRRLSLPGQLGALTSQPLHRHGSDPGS

[43] = tested on: Streptococcus pyogenes; experiment: Antibacterial activity against Streptococcus pyogenes assessed as growth inhibition by broth microdilution assay; type: functional
[44] = tested on: Escherichia coli; experiment: Antibacterial activity against Escherichia coli assessed as growth inhibition by broth microdilution assay; type: functional
[45] = tested on: Streptococcus pneumoniae; experiment: Antibacterial activity against Streptococcus pneumoniae assessed as growth inhibition by broth microdilution assay; type: functional
[46] = tested on: Moraxella catarrhalis; experiment: Antibacterial activity against Moraxella catarrhalis assessed as growth inhibition by broth microdilution assay; type: functional
[47] = tested on: Haemophilus influenzae; experiment: Antibacterial activity against Haemophilus influenzae assessed as growth inhibition by broth microdilution assay; type: functional
[48] = tested on: Enterococcus faecalis; experiment: Antibacterial activity against Enterococcus faecalis assessed as growth inhibition by broth microdilution assay; type: functional
[49] = tested on: Enterococcus faecium; experiment: Antibacterial activity against Enterococcus faecium assessed as growth inhibition by broth microdilution assay; type: functional
[50] = Drug degradation assessed as formation of 2-((2S,4R)-1-(benzofuran-3-carbonyl)-4-(3-ethyl-1-methyl-1H-pyrazole-5-carboxamido)pyrrolidine-2-carboxamido)acetic acid; type: physicochemical

COc1c(N2C[C@@H]3CCCN[C@@H]3C2)c(F)cc2c(=O)c(C(=O)O)cn(C3CC3)c12 [MOXIFLOXACIN]
fold change (FC) [1]: 3.48 | Activity [2]: Active

CCc1cc(C(=O)N[C@@H]2C[C@@H](C(N)=O)N(C(=O)c3coc4ccccc34)C2)n(CC)n1
Activity [3]: inactive | Cmax [4]: 23000 ng/mL | AUC at 24 h [5]: 73700 ng·h/mL | bioavailability [6]: 35.6% | clearance [7]: 85.5 mL/min/kg | Vd [8]: 3.68 L/kg | AUC(0-inf) [9]: 3590 ng·h/mL | half-life [10]: 28.2 min | Cmax [11]: 1750 ng/mL | Tmax [12]: 49.8 min | FC [13]: >2 | MIC [14]: 0.24 µM (≈ 0.102 µg/mL) | fraction unbound at 1 µM [15]: 0.013 | CLH [16]: < 0.3 mL/min/g | half-life at 0.5 µM [17]: > 30 min | CLH [18]: < 0.3 mL/min/g | half-life at 0.5 µM [19]: > 30 min | IC50 [20]: > 50 µM | IC50 [21]: > 50 µM | IC50 [22]: > 50 µM | IC50 [23]: > 50 µM | IC50 [24]: > 50 µM | solubility kinetic at 1 h [25]: > 441 µM | MIC90 [26]: 0.5 µM (≈ 0.212 µg/mL) | fraction unbound at 1 µM [27]: 0.153 | Papp [28]: 7.8 ×10⁻⁶ cm/s | chromatographic logD [29]: 2.94 | IC50 [30]: 4 nM

CCNC(=O)[C@@H]1C[C@@H](NC(=O)c2cc(CC)nn2C)CN1C(=O)c1coc2ccccc12
Drug metabolism [31]: Active | Drug metabolism [32]: Active | Drug metabolism [33]: Active | Drug metabolism [34]: Active | Drug metabolism [35]: Active | Drug metabolism [36]: Active | CLint scaled at 1 µM [37]: 19 mL/min/kg | half-life at 10 µM [38]: 227 min | CLint scaled at 1 µM [39]: 538 mL/min/kg | half-life at 10 µM [40]: 27 min | CLH [16]: 0.7 mL/min/g | half-life at 0.5 µM [17]: > 30 min | CLH [18]: 2.6 mL/min/g | half-life at 0.5 µM [19]: 28 min | IC50 [20]: > 50 µM | IC50 [21]: > 50 µM | IC50 [22]: > 50 µM | IC50 [23]: > 50 µM | IC50 [24]: > 50 µM | IC50 [41]: > 50 µM | IC50 [42]: > 50 µM | MIC [43]: > 64 µM | MIC [44]: > 64 µM | MIC [45]: > 64 µM | MIC [46]: > 64 µM | MIC [47]: > 64 µM | MIC [48]: > 64 µM | MIC [49]: > 64 µM | solubility kinetic at 1 h [25]: > 448 µM | MIC [26]: 8 µM (≈ 3.5 µg/mL) | fraction unbound at 1 µM [27]: 0.144 | Papp [28]: 13 ×10⁻⁶ cm/s | chromatographic logD [29]: 2.93 | IC50 [30]: 34 nM

CCc1cc(C(=O)N[C@@H]2C[C@@H](C(=O)NCC(=O)OC)N(C(=O)c3coc4ccccc34)C2)n(C)n1
Stability [50]: Unstable | Kinetic_solubility ([25]; 1 h): soluble | MIC90 [26]: 0.5 µM (≈ 0.241 µg/mL) | IC50 [30]: 5 nM

CCc1cc(C(=O)N[C@@H]2C[C@@H](C(=O)NCc3nc4ccccc4o3)N(C(=O)c3coc4ccccc34)C2)n(C)n1
MIC90 [26]: 0.5 µM (≈ 0.27 µg/mL) | IC50 [30]: 3 nM

CCc1cc(C(=O)N[C@@H]2C[C@@H](C(=O)N[C@H](CO)Cc3ccccc3)N(C(=O)c3coc4ccccc34)C2)n(C)n1
MIC90 [26]: 1 µM (≈ 0.544 µg/mL) | IC50 [30]: 112 nM

CCCn1nc(CC)cc1C(=O)N[C@@H]1C[C@@H](C(=O)NCC(=O)OC)N(C(=O)c2coc3ccccc23)C1
MIC90 [26]: 1 µM (≈ 0.51 µg/mL) | IC50 [30]: 11 nM
